Reference: ChEMBL document CHEMBL1138551, “Antimicrobial studies of some novel quinazolinones fused with [1,2,4]-triazole, [1,2,4]-triazine and [1,2,4,5]-tetrazine rings” (2009)
Converted amounts (≈) assume the structure as drawn.

Key:
Type in all cases: functional
Candida albicans = experiment: Antifungal activity against Candida albicans after 26 hrs by serial plate dilution method
Aspergillus niger = experiment: Antifungal activity against Aspergillus niger after 26 hrs by serial plate dilution method
Aspergillus fumigatus = experiment: Antifungal activity against Aspergillus fumigatus after 26 hrs by serial plate dilution method
Streptococcus pneumoniae = experiment: Antibacterial activity against Streptococcus pneumoniae after 24 hrs by disk diffusion method
Aspergillus flavus = experiment: Antifungal activity against Aspergillus flavus after 26 hrs by serial plate dilution method
Pseudomonas aeruginosa = experiment: Antibacterial activity against Pseudomonas aeruginosa after 24 hrs by disk diffusion method
Bacillus subtilis = experiment: Antibacterial activity against Bacillus subtilis after 24 hrs by disk diffusion method
Escherichia coli = experiment: Antibacterial activity against Escherichia coli after 24 hrs by disk diffusion method

Compound | MIC (Candida albicans) [µg/mL] | MIC (Aspergillus niger) [µg/mL] | MIC (Aspergillus fumigatus) [µg/mL] | MIC (Streptococcus pneumoniae) [µg/mL] | MIC (Aspergillus flavus) [µg/mL] | MIC (Pseudomonas aeruginosa) [µg/mL] | MIC (Bacillus subtilis) [µg/mL] | MIC (Escherichia coli) [µg/mL]
COc1ccc(-n2c(=O)c3ccccc3n3c(-c4ccccc4C)nnc23)cc1 | 12.5 (≈ 32.7 µM) | 6.25 (≈ 16.3 µM) | 6.25 (≈ 16.3 µM) | 25 (≈ 65.4 µM) | 25 (≈ 65.4 µM) | 3.12 (≈ 8.16 µM) | 12.5 (≈ 32.7 µM) | 6.25 (≈ 16.3 µM)
COc1ccc(-n2c(=O)c3ccccc3n3c(-c4ccccc4)nnc23)cc1 | 6.25 (≈ 17 µM) | 3.12 (≈ 8.47 µM) | 12.5 (≈ 33.9 µM) | 6.25 (≈ 17 µM) | 25 (≈ 67.9 µM) | 6.25 (≈ 17 µM) | 12.5 (≈ 33.9 µM) | 12.5 (≈ 33.9 µM)
Cc1ccc(-n2c(=O)c3ccccc3n3c(-c4ccccc4)nnc23)cc1 | > 50 | 50 (≈ 142 µM) | 25 (≈ 70.9 µM) | 50 (≈ 142 µM) | 50 (≈ 142 µM) | 25 (≈ 70.9 µM) | 50 (≈ 142 µM) | 25 (≈ 70.9 µM)
O=c1c2ccccc2n2c(-c3ccccc3)nnc2n1-c1ccc(Cl)cc1 | 12.5 (≈ 33.5 µM) | 25 (≈ 67.1 µM) | 6.25 (≈ 16.8 µM) | 12.5 (≈ 33.5 µM) | 12.5 (≈ 33.5 µM) | 12.5 (≈ 33.5 µM) | 6.25 (≈ 16.8 µM) | 6.25 (≈ 16.8 µM)
O=c1c2ccccc2n2c(-c3ccccc3)nnc2n1-c1ccccc1 | 25 (≈ 73.9 µM) | 25 (≈ 73.9 µM) | > 50 | 50 (≈ 148 µM) | > 50 | > 50 | 25 (≈ 73.9 µM) | 50 (≈ 148 µM)
Cc1ccc(N2C(=O)c3ccccc3N3C2=NNC(=S)N3c2ccccc2)cc1 | 25 (≈ 62.6 µM) | 25 (≈ 62.6 µM) | 12.5 (≈ 31.3 µM) | > 50 | 12.5 (≈ 31.3 µM) | 25 (≈ 62.6 µM) | 25 (≈ 62.6 µM) | 25 (≈ 62.6 µM)
Cc1ccc(-n2c(=O)c3ccccc3n3c4nc5ccccc5c-4nnc23)cc1 | 25 (≈ 66.2 µM) | 50 (≈ 132 µM) | 12.5 (≈ 33.1 µM) | 25 (≈ 66.2 µM) | 25 (≈ 66.2 µM) | > 50 | 25 (≈ 66.2 µM) | 25 (≈ 66.2 µM)
COc1ccc(-n2c(=O)c3ccccc3n3c4nc5ccccc5c-4nnc23)cc1 | 6.25 (≈ 15.9 µM) | 12.5 (≈ 31.8 µM) | 6.25 (≈ 15.9 µM) | 12.5 (≈ 31.8 µM) | 3.12 (≈ 7.93 µM) | 12.5 (≈ 31.8 µM) | 6.25 (≈ 15.9 µM) | 12.5 (≈ 31.8 µM)
O=C1c2ccccc2N2C(=NNC(=S)N2c2ccccc2)N1c1ccccc1 | 25 (≈ 64.9 µM) | 25 (≈ 64.9 µM) | > 50 | 25 (≈ 64.9 µM) | > 50 | 50 (≈ 130 µM) | > 50 | > 50
COc1ccc(N2C(=S)NN=C3N(c4ccccc4)C(=O)c4ccccc4N32)cc1 | 6.25 (≈ 15 µM) | 3.12 (≈ 7.51 µM) | 12.5 (≈ 30.1 µM) | 25 (≈ 60.2 µM) | 25 (≈ 60.2 µM) | 3.12 (≈ 7.51 µM) | 3.12 (≈ 7.51 µM) | 6.25 (≈ 15 µM)
Cc1ccccc1-c1nnc2n(-c3ccccc3)c(=O)c3ccccc3n12 | 50 (≈ 142 µM) | > 50 | 25 (≈ 70.9 µM) | > 50 | 25 (≈ 70.9 µM) | 50 (≈ 142 µM) | > 50 | 25 (≈ 70.9 µM)
Cc1ccccc1-c1nnc2n(-c3ccc(Cl)cc3)c(=O)c3ccccc3n12 | 6.25 (≈ 16.2 µM) | 12.5 (≈ 32.3 µM) | 12.5 (≈ 32.3 µM) | 25 (≈ 64.6 µM) | 3.12 (≈ 8.07 µM) | 25 (≈ 64.6 µM) | 12.5 (≈ 32.3 µM) | 12.5 (≈ 32.3 µM)
Cc1ccc(-n2c(=O)c3ccccc3n3c(-c4ccccc4Cl)nnc23)cc1 | 12.5 (≈ 32.3 µM) | 6.25 (≈ 16.2 µM) | 25 (≈ 64.6 µM) | 12.5 (≈ 32.3 µM) | 50 (≈ 129 µM) | 6.25 (≈ 16.2 µM) | 25 (≈ 64.6 µM) | 12.5 (≈ 32.3 µM)
Cc1ccc(-n2c(=O)c3ccccc3n3c(-c4ccccc4C)nnc23)cc1 | 25 (≈ 68.2 µM) | 12.5 (≈ 34.1 µM) | 12.5 (≈ 34.1 µM) | 25 (≈ 68.2 µM) | 50 (≈ 136 µM) | > 50 | > 50 | 25 (≈ 68.2 µM)
O=c1c2ccccc2n2c(-c3ccccc3Cl)nnc2n1-c1ccccc1 | 25 (≈ 67.1 µM) | 6.25 (≈ 16.8 µM) | 50 (≈ 134 µM) | 25 (≈ 67.1 µM) | 12.5 (≈ 33.5 µM) | 6.25 (≈ 16.8 µM) | 50 (≈ 134 µM) | 12.5 (≈ 33.5 µM)
COc1ccc(-n2c(=O)c3ccccc3n3c(-c4ccccc4Cl)nnc23)cc1 | 6.25 (≈ 15.5 µM) | 1.56 (≈ 3.87 µM) | 3.12 (≈ 7.74 µM) | 6.25 (≈ 15.5 µM) | 3.12 (≈ 7.74 µM) | 1.56 (≈ 3.87 µM) | 3.12 (≈ 7.74 µM) | 3.12 (≈ 7.74 µM)
Cc1ccc(N2C(=S)NN=C3N(c4ccccc4)C(=O)c4ccccc4N32)cc1 | > 50 | 25 (≈ 62.6 µM) | 25 (≈ 62.6 µM) | 25 (≈ 62.6 µM) | 12.5 (≈ 31.3 µM) | 50 (≈ 125 µM) | 50 (≈ 125 µM) | 50 (≈ 125 µM)
O=c1c2ccccc2n2c3nc4ccccc4c-3nnc2n1-c1ccccc1 | > 50 | > 50 | 25 (≈ 68.8 µM) | > 50 | 25 (≈ 68.8 µM) | 25 (≈ 68.8 µM) | 50 (≈ 138 µM) | 50 (≈ 138 µM)
O=c1c2ccccc2n2c(-c3ccccc3Cl)nnc2n1-c1ccc(Cl)cc1 | 1.56 (≈ 3.83 µM) | 1.56 (≈ 3.83 µM) | 3.12 (≈ 7.66 µM) | 3.12 (≈ 7.66 µM) | 6.25 (≈ 15.3 µM) | 3.12 (≈ 7.66 µM) | 1.56 (≈ 3.83 µM) | 1.56 (≈ 3.83 µM)
O=c1c2ccccc2n2c3nc4ccccc4c-3nnc2n1-c1ccc(Cl)cc1 | 3.12 (≈ 7.84 µM) | 1.56 (≈ 3.92 µM) | 6.25 (≈ 15.7 µM) | 1.56 (≈ 3.92 µM) | 3.12 (≈ 7.84 µM) | 3.12 (≈ 7.84 µM) | 6.25 (≈ 15.7 µM) | 3.12 (≈ 7.84 µM)
Cc1ccc(N2C(=O)c3ccccc3N3C2=NNC(=S)N3c2ccc(C)cc2)cc1 | 25 (≈ 60.5 µM) | 25 (≈ 60.5 µM) | 50 (≈ 121 µM) | 50 (≈ 121 µM) | 12.5 (≈ 30.2 µM) | 50 (≈ 121 µM) | 25 (≈ 60.5 µM) | 25 (≈ 60.5 µM)
O=C(O)c1cn(C2CC2)c2cc(N3CCNCC3)c(F)cc2c1=O [CIPROFLOXACIN] | – | – | – | 6.25 (≈ 18.9 µM) | – | 3.12 (≈ 9.42 µM) | 1.56 (≈ 4.71 µM) | –
OC(Cn1cncn1)(Cn1cncn1)c1ccc(F)cc1F [FLUCONAZOLE] | 1.56 (≈ 5.09 µM) | 1.56 (≈ 5.09 µM) | 6.25 (≈ 20.4 µM) | – | 3.12 (≈ 10.2 µM) | – | – | –
